Test results taken from patent publication US20240116985A1, “STAPLED PEPTIDES AND METHODS THEREOF” (priority 2020, published 2024).
pIC50: −log10 of the molar value. Where two headings read alike, the source gives them in different places.

Key:
[1] = target: T1, full-length beta-Catenin (Uniprot ID P35222) (Homo sapiens, UniProt P35222); experiment: Fluorescence polarization IC50 (beta-catenin / 5FAM-TCF4 10-53 competition); assay type: binding; details: fluorescence polarization; read-out: beta-Catenin FP IC50
T1 construct: 10 nM full-length beta-Catenin (Uniprot ID P35222)
T1 sequence (P35222 1-781): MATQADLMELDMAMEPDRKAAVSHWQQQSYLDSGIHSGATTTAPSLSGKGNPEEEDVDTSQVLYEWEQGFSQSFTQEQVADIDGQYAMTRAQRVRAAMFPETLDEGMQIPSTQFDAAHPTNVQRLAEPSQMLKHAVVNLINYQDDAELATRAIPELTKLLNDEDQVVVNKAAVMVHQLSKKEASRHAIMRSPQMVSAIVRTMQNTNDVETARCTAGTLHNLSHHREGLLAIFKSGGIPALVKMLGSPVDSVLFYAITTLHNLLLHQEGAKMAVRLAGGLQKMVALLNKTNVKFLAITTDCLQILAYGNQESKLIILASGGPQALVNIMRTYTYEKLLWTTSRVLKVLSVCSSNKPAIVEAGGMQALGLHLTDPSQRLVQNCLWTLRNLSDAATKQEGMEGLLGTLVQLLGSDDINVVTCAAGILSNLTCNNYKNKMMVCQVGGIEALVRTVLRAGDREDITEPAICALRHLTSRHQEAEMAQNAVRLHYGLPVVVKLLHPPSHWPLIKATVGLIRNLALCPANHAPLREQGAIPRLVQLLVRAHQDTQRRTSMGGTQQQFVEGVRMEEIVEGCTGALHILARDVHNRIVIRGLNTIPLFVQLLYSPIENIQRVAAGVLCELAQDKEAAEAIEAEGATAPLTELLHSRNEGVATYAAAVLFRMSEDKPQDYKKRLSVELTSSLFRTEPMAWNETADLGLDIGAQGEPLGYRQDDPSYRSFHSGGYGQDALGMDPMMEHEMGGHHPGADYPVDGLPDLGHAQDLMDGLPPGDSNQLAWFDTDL

[2] = target: T2, beta-catenin/TCF4 engagement (Homo sapiens, UniProt P35222); experiment: Nano-BRET target engagement assay (B-cat-Halo & TCF4-Luc in HEK293 cells); assay type: cell-based; details: read-out: NanoBRET Abs IC50
T2 construct: expressed in transfected cells; host or cells: HEK293
T2 sequence (P35222 1-781): T1 sequence (P35222 1-781)

SMILES | pIC50 [1] | pIC50 [2] | pIC50 ([2]; absolute IC50)
CC(=O)N1CCC[C@]12CC=CCC1(CC=CCCCOC(=O)N3CC[C@@](C(=O)N[C@@H](Cc4ccsc4)C(=O)N[C@@H](Cc4csc5ccccc45)C(=O)N[C@@H](CCC(N)=O)C(N)=O)(C3)NC(=O)[C@H](CC(C)C)NC(=O)[C@H](Cc3ccccc3)NC(=O)[C@H](C)NC(=O)[C@H](C)NC(=O)[C@H](CC(=O)O)NC(=O)[C@H](CC(=O)O)NC1=O)NC(=O)[C@H](CC(C)(C)C)NC(=O)[C@H](CC(=O)O)NC2=O (stereo partly drawn) [I-2156, Ac-PL3-Asp-Npg-B3-Asp-Asp-Ala-Ala-Phe-Leu-PyrS2-3Thi-BztA-Gln-NH2] | 6.41 | < 4.70 | 
CC(=O)N1CCC[C@]12CC=CCCCC1(CCCC=CCCCOC(=O)N3CC[C@@](C(=O)N[C@@H](Cc4ccccc4Cl)C(=O)N[C@@H](Cc4csc5ccccc45)C(=O)N[C@@H](CCC(N)=O)C(N)=O)(C3)NC(=O)[C@H](CC(C)C)NC(=O)[C@H](Cc3ccccc3)NC(=O)CNC(=O)C(C)(C)NC(=O)[C@H](Cc3cccc(C(=O)O)c3)NC(=O)[C@H](CC(=O)O)NC1=O)NC(=O)[C@H](CC(C)(C)C)NC(=O)[C@H](CC(=O)O)NC2=O (stereo partly drawn) [I-1689, Ac-PL3-Asp-Npg-B5-Asp-3COOHF-Aib-Gly-Phe-Leu-PyrS2-2C1F-BztA-Gln-NH2] | 7.59 |  | 4.90
CC(=O)N1CCC[C@]12CC=CCCCC1(CCCC=CCCCOC(=O)N3CC[C@@](C(=O)N[C@@H](Cc4ccsc4)C(=O)N[C@@H](Cc4csc5ccccc45)C(=O)N[C@@H](CCC(N)=O)C(N)=O)(C3)NC(=O)[C@H](CC(N)=O)NC(=O)[C@H](Cc3ccccc3)NC(=O)[C@H](C)NC(=O)C(C)(C)NC(=O)[C@H]([C@@H](C)O)NC(=O)[C@H](CC(N)=O)NC1=O)NC(=O)[C@H](CC(C)(C)C)NC(=O)[C@H](CC(=O)O)NC2=O (stereo partly drawn) [I-2338, Ac-PL3-Asp-Npg-B5-Asn-Thr-Aib-Ala-Phe-Asn-PyrS2-3Thi-BztA-Gln-NH2] | 7.20 |  | < 4.70
CC(=O)N1CCC[C@]12CC=CCCCC1(CCCC=CCCCOC(=O)N3CC[C@@](C(=O)N[C@@H](Cc4ccsc4)C(=O)N[C@@H](Cc4csc5ccccc45)C(=O)N[C@@H](Cc4ccccc4)C(N)=O)(C3)NC(=O)[C@H](CC(C)C)NC(=O)[C@H](Cc3ccccc3)NC(=O)[C@H](C)NC(=O)[C@H](CCCCN)NC(=O)[C@H](Cc3cccc(C(=O)O)c3)NC(=O)[C@H](CC(=O)O)NC1=O)NC(=O)[C@H](CC(C)(C)C)NC(=O)[C@H](CC(=O)O)NC2=O (stereo partly drawn) [I-1911, Ac-PL3-Asp-Npg-B5-Asp-3COOHF-Lys-Ala-Phe-Leu-PyrS2-3Thi-BztA-Phe-NH2] | 7.42 | < 4.70 | 
CC(=O)N1CCC[C@]12CC=CCCCC1(CCCC=CCCCCCC[C@@](C)(C(=O)N[C@@H](Cc3ccccc3)C(=O)N[C@@H](Cc3csc4ccccc34)C(=O)N[C@@H](CCC(N)=O)C(N)=O)NC(=O)[C@H](CC(C)C)NC(=O)[C@H](Cc3ccccc3)NC(=O)[C@H](C)NC(=O)[C@H](C)NC(=O)[C@H](CCC(=O)O)NC(=O)[C@H](CC(=O)O)NC1=O)NC(=O)[C@H](CO)NC(=O)[C@H](CC(=O)O)NC2=O (stereo partly drawn) [I-1528, Ac-PL3-Asp-Ser-B5-Asp-Glu-Ala-Ala-Phe-Leu-S8-Phe-BztA-Gln-NH2] | 6.99 |  | 4.50
C#CC(=O)N1CCC[C@]12CC=CCCCC1(CCCC=CCCCOC(=O)N3CC[C@@](C(=O)N[C@@H](Cc4ccsc4)C(=O)N[C@@H](Cc4csc5ccccc45)C(=O)N[C@@H](Cc4c[nH]cn4)C(N)=O)(C3)NC(=O)[C@H](CCC(N)=O)NC(=O)[C@H](Cc3ccccc3)NC(=O)[C@H](C)NC(=O)[C@H](C)NC(=O)[C@H](CC(=O)O)NC(=O)[C@H](CC(=O)O)NC1=O)NC(=O)[C@H](CC(C)(C)C)NC(=O)[C@H](CC(=O)O)NC2=O (stereo partly drawn) [I-2402, PropynOH-PL3-Asp-Npg-B5-Asp-Asp-Ala-Ala-Phe-Gln-PyrS2-3Thi-BztA-His-NH2] | 7.80 |  | < 4.70
CC(=O)N1CCC[C@]12CC=CCCCCC1(CCCCC=CCCCOC(=O)N3CC[C@@](C(=O)N[C@@H](Cc4ccccc4C(F)(F)F)C(=O)N[C@@H](Cc4csc5ccccc45)C(=O)N[C@@H](CCC(N)=O)C(N)=O)(C3)NC(=O)[C@H](CC(C)C)NC(=O)[C@H](Cc3ccccc3)NC(=O)[C@H](C)NC(=O)[C@H](C)NC(=O)[C@H](Cc3cccc(C(=O)O)c3)NC(=O)[C@H](CC(=O)O)NC1=O)NC(=O)[C@H](CC(C)(C)C)NC(=O)[C@H](CC(=O)O)NC2=O (stereo partly drawn) [I-2513, Ac-PL3-Asp-Npg-B6-Asp-3COOHF-Ala-Ala-Phe-Leu-PyrS2-2F3MeF-BztA-Gln-NH2] | 7.18 |  | < 4.70
CC(=O)N1CCC[C@]12CC=CCCCC1(CCCC=CCCCOC(=O)N3CC[C@@](C(=O)N[C@@H](Cc4ccccc4C(F)(F)F)C(=O)N[C@@H](Cc4ccc(F)c(Br)c4)C(=O)N[C@@H](C)C(N)=O)(C3)NC(=O)[C@H](CC(C)C)NC(=O)[C@H](Cc3ccccc3)NC(=O)[C@H](C)NC(=O)[C@H](CCC(N)=O)NC(=O)[C@H](Cc3cccc(C(=O)O)c3)NC(=O)[C@H](CC(=O)O)NC1=O)NC(=O)[C@H](CC(C)(C)C)NC(=O)[C@H](CC(=O)O)NC2=O (stereo partly drawn) [I-2290, Ac-PL3-Asp-Npg-B5-Asp-3COOHF-Gln-Ala-Phe-Leu-PyrS2-2F3MeF-3Br4FF-Ala-NH2] | 7.85 |  | 5.10
CC(=O)N1CCC[C@]12CC=CCCCC1(CCCC=CCCCOC(=O)N3CC[C@@](C(=O)N[C@@H](Cc4ccsc4)C(=O)N[C@@H](Cc4csc5ccccc45)C(=O)N[C@@H](CCC(N)=O)C(N)=O)(C3)NC(=O)[C@H](CC(C)C)NC(=O)[C@H](Cc3ccccc3)NC(=O)[C@H](C)NC(=O)[C@H](C)NC(=O)[C@H](CC(=O)O)NC(=O)[C@H](CC(=O)O)NC1=O)NC(=O)[C@H](CC1CCCCC1)NC(=O)[C@H](CC(=O)O)NC2=O (stereo partly drawn) [I-1519, Ac-PL3-Asp-Cha-B5-Asp-Asp-Ala-Ala-Phe-Leu-PyrS2-3Thi-BztA-Gln-NH2] | 8.00 |  | 4.89
CC(=O)NCCCC[C@@H]1NC(=O)[C@H](Cc2ccccc2)NC(=O)[C@H](C)NC(=O)[C@H](C)NC(=O)[C@H](Cc2cccc(C(=O)O)c2)NC(=O)[C@H](CC(=O)O)NC(=O)C2(CCCC=CCCCOC(=O)N3CC[C@@](C(=O)N[C@@H](Cc4ccccc4C(F)(F)F)C(=O)N[C@@H](Cc4csc5ccccc45)C(=O)N[C@@H](CCC(=O)N(C)C)C(N)=O)(C3)NC1=O)CCCC=CC[C@]1(CCCN1C(C)=O)C(=O)N[C@@H](CC(=O)O)C(=O)N[C@@H](CC(C)(C)C)C(=O)N2 (stereo partly drawn) [I-2539, Ac-PL3-Asp-Npg-B5-Asp-3COOHF-Ala-Ala-Phe-AcLys-PyrS2-2F3MeF-BztA-Me2Gln-NH2] | 7.96 |  | 5.44
CC(=O)N1CCC[C@]12CC=CCCCC1(CCCC=CCCCOC(=O)N3CC[C@@](C(=O)N[C@@H](Cc4ccsc4)C(=O)N[C@@H](Cc4csc5ccccc45)C(=O)N[C@@H](CCC(N)=O)C(N)=O)(C3)NC(=O)[C@H](CC(C)C)NC(=O)[C@H](Cc3ccccc3)NC(=O)[C@H](C)NC(=O)[C@H](C)NC(=O)[C@H](CC(=O)O)NC(=O)[C@H](CC(=O)O)NC1=O)NC(=O)[C@H](CO)NC(=O)[C@H](CC(=O)O)NC2=O (stereo partly drawn) [I-1513, Ac-PL3-Asp-Ser-B5-Asp-Asp-Ala-Ala-Phe-Leu-PyrS2-3Thi-BztA-Gln-NH2] | 7.68 |  | < 4.70
